How the values were obtained:
human whole blood [1] = type: cell-based; set-up: key to IL-1 / IFNγ / Neopterin / TNF / IL-6 / IL-8 / IL-2 / STL-2R / SCD8 / IL-10 / IL-4: index relative to medium control = 100; details: for IFNγ / IL-1 / IL-2 / IL-4 / IL-6 / IL-8 / IL-10 / Neopterin / SCD8 / STL-2R / TNF: blood from 5 normal humans, highest value at any time or concentration, related to medium control given the value 100
Protocol: (§1) Five healthy blood donors from both sexes ranging in age between 25 and 55 years are used. Blood is collected by venous puncture into endotoxin free heparin tubes (Coatech, Ljungby, Sweden) that contains 120 IU heparin and are filled with 4 ml of blood. None of the blood donors are allowed to have a history of allergy or atopic excema or any indication of ongoing disease of any kind.
(§2) 100 ul of blood is added to the wells of Nunclon microtiter plates.
(§3) For substances to be tested for effects in the system different concentration are added to the blood. The highest concentration of the substance being non toxic to the cells indicated by inspection in microscopic in presence of vital stain e.g. trypan blue is used as start concentration.
(§4) The microtiter plates are incubated at 37° C. at 90% humidity and with 5% CO2. An appropriate number of identical plates are prepared and are taken out of the incubator for testing at intervals of, 1 day, 2 days and 6 days.
Another set of plates is prepared with the same design as in “Culture protocol” above. Cytokines released from the cultured cells are measured in the supernatants obtained after centrifugation of the plates at 650 g for 10 minutes. The supernatants were either tested immediately or stored at −20° C. until tested.
The instructions of the manufacturers were followed. All these tests are enzyme immunoassays (EIA:s). The principle is that microtiter plate wells are labeled with a cytokine specific capture antibody. If cytokine is present in the samples added to the wells it will be captured to the bottom of the well. […] The reaction is thereafter measured as colour developed after addition of a substrate for the enzyme. The values for the test wells is compared with a standard curve obtained by adding a series of known amounts of cytokine. The values obtained for control wells with no substance added are used as background values for cytokine levels and proliferation as measured by ^3H-thymidin incorporation. Positive indications are recorded when values above 2 SD of the variation of the controls are obtained.
(§5) The highest value as compared to medium control obtained at any time or concentration for each substance is used as indicator value in the table and related to medium control put to value 100 index.

human whole blood [2] = assay: Proliferation assay, 3H-thymidine incorporation in diluted whole blood cultures; type: cell-based; details: for Prolif. Index (3H-Thymidine Proliferation): blood from 5 normal humans, highest value at any time or concentration, related to medium control given the value 100; for proliferative response (in words): summary of results, 3H-thymidine incorporation
Protocol: as §1, §2, §3, §4
One set of plates is used to estimate the proliferative activity of the donor cells spontaneously (=medium or substance dissolved controls); in response to PHA, and in response to samples of test substances at various concentrations. The highest concentration of sub-stance non toxic to the cells indicated by inspection in microscope in presence of vital stain (e.g. trypan blue) is used as start concentration. Ser. dilutions of the sub-stance is then performed as stated above.
The plates were incubated for additional 4 hours at 37° C. The cells were then collected using a Skatron cell harvester (Skatron, Lier, Norway) and Titertek paper filters. The result of his procedure is that the DNA of the cells is stuck in the filter paper, whereas the ^3H-thymidin not incorporated in the DNA passes through the filter and goes with the waste washing water. The radioactivity in the filter papers is thus proportional to the DNA synthesis that occured during the 4 hours preceding the harvesting procedure. The radiactivity of the filter papers is determined in a Packard liquid scintillation counter, and thymidine incorporation was expressed as counts per minute (cpm).
as §5

[3] = summary of results, secreted into supernatants

Row | Compound | IFNγ (human whole blood [1]) | IL-1 (human whole blood [1]) | IL-2 (human whole blood [1]) | IL-4 (human whole blood [1]) | IL-6 (human whole blood [1]) | IL-8 (human whole blood [1]) | IL-10 (human whole blood [1]) | Neopterin (human whole blood [1]) | SCD8 (human whole blood [1]) | STL-2R (human whole blood [1]) | TNF (human whole blood [1]) | Neopterin induction (in words) (human whole blood [1]; [3]) | immune lymphocyte class / specific immune response cytokines induced (in words) (human whole blood [1]; [3]) | unspecific inflammatory / tissue toxic group cytokines induced (in words) (human whole blood [1]; [3]) | Prolif. Index (3H-Thymidine Proliferation) (human whole blood [2]) | proliferative response (in words) (human whole blood [2]) | predicted adverse reaction from cytokine pattern (in words) (human whole blood [1]; interpretation of the cytokine profile)
1 | [Cl][Ni][Cl] [IV, Nickel chloride] | 1220 | 1165 | 445 | 80 | 660 | 380 | 800 | 90 | 110 | 130 | 225 | no Neopterin | IFN-gamma, IL-2 and IL-10 | IL-1, IL-6, TNF and IL-8 | 1340 | low proliferative response | 
2 | Triton X-100 | 120 | 630 | 85 | 85 | 460 | 200 | 95 | 110 | 95 | 115 | 400 |  |  | IL-1, IL-6 and TNF | 200 | induced proliferation | positive tissue irritant
3 | phytohemagglutinin [Plus] | 800 | 690 | 750 | 820 | 1620 | 780 | 1250 | 440 | 940 | 1820 | 420 |  | neopterin, IFN-gamma IL-2 and IL-4 and IL-10 | IL-1, IL-6, TNF and IL-8 | 2600 | strong proliferative response | 
